# Target: T1, recombinant IL4I1 (Homo sapiens, UniProt Q96RQ9)
# T1 construct: purchased R&D Systems 5684-AO-020
# T1 sequence (Q96RQ9 22-567): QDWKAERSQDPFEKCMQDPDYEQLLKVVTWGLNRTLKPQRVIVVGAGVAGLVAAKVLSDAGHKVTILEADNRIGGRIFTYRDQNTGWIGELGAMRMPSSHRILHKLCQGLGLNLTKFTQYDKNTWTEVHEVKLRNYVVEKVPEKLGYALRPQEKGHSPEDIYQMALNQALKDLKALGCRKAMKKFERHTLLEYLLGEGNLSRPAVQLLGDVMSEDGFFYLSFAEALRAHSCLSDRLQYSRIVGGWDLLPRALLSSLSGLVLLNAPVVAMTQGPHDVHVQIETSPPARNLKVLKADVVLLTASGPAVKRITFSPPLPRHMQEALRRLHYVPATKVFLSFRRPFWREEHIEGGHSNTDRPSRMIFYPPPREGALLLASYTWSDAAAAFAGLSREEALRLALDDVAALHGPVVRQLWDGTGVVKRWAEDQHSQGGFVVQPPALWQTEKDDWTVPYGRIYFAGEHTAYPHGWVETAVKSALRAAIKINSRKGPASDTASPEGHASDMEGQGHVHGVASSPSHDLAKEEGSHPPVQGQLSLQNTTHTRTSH
# Assay: IL4I1 Enzymatic Assay (Amplex Red/HRP coupled detection of H2O2, fluorescence)
# Format: biochemical
# Conditions: 1 nM recombinant IL4I1; four-hour pre-incubation with compound; 1 mM each Phe, Tyr, Trp; ten-point titration
# Procedure: Interleukin 4 inducible protein 1 (IL4I1) is an L-amino oxidase that catalyzes the oxidation of aromatic residues (Phe, Trp and Tyr): L-amino acid+H2O+O2→2-oxo acid+NH3+H2O2. Equal molar of H2O2 and the corresponding alpha-ketoacid are produced when IL4I1 and substrate are added. In this assay, the hydrogen peroxide generated by IL4I1 is then detected through a coupled reaction with Amplex Red (10-acetyl-3,7-dihydroxyphenoxazine) and […] (HRP) to produce Resorufin product that could be detected in the form of fluorescence signals. The assessment of the inhibitory effect of small molecules (EC50) on IL4I1 is measured by the effectiveness of the compounds to inhibit the production of H202.
# Using this assay, the potency (EC50) of each compound was determined from a ten-point (1:3 serial dilution) titration curve using the following outlined procedure. To each well of a black flat-bottom Greiner (Cat #781076) 384 well-plate, 125 nL of compound (0.5% DMSO in final assay volume of 25 μL) was dispensed, followed by the addition of 12.5 μL of 1× assay buffer (50 mM Hepes 7.0 and 0.005% Tween20 (Sigma, Cat #P8341; low peroxide grade)) containing 2 nM of recombinant IL4I1 (R&D Systems, Cat #5684-AO-020). Plates were placed in an ambient temperature humidified chamber for a four-hour pre-incubation with compound. Subsequently, each reaction was initiated by the addition of 12.5 μL 1× assay buffer containing 2 mM of each aromatic amino acids (Phe/Tyr/Trp), 0.1 mM Amplex Red and 2 U/mL of HRP. The final reaction in each well of 25 μL consists of 1 nM of IL4I1, 1 mM of each residue (Phe, Tyr and Trp), 0.05 mM Amplex Red and 1 U/mL of HRP. It should be noted that the concentrations of Amplex Red and HRP used here are in excess such that the conversion of H2O2 to Resorufin product occurs instantaneously and non-rate limiting. Reactions were allowed to proceed for 120 minutes followed by fluorescence readout on a Spectramax with the following set parameters: 544 nm excitation/590 nm emission, 570 nm cutoff (EnVision is an alternative reader). Dose-response curves were generated by plotting percent effect (% inhibition; Y-axis) vs. Log10 compound concentrations (X-axis). EC50 values were calculated using a non-linear regression, four-parameters sigmoidal dose-response model and are shown in Table 16.
row,EC50 [nM],Compound
1,18,"CC(CC(F)(F)F)n1cc(C(=O)NCc2nnc(-c3ccccc3)s2)nn1 (single isomer, unassigned) [Example 63, N-((5-phenyl-1,3,4-thiadiazol-2-yl)methyl)-1-(4,4,4-trifluorobutan-2-yl)-1H-1,2,3-triazole-4-carboxamide]"
2,93,"CC(CC(F)(F)F)n1cc(C(=O)NCc2nnc(-c3ccccc3)s2)nn1 (single isomer, unassigned) [Example 64, N-((5-phenyl-1,3,4-thiadiazol-2-yl)methyl)-1-(4,4,4-trifluorobutan-2-yl)-1H-1,2,3-triazole-4-carboxamide]"
3,5,"O=C(NCc1nnc(-c2ccccc2)s1)c1cn(C2CC2(F)F)nn1 (single isomer, unassigned) [Example 130, 1-(2,2-difluorocyclopropyl)-N-((5-phenyl-1,3,4-thiadiazol-2-yl)methyl)-1H-1,2,3-triazole-4-carboxamide]"
4,54,"O=C(NCc1nnc(-c2ccccc2)s1)c1cn(C2CC2(F)F)nn1 (single isomer, unassigned) [Example 131, 1-(2,2-difluorocyclopropyl)-N-((5-phenyl-1,3,4-thiadiazol-2-yl)methyl)-1H-1,2,3-triazole-4-carboxamide]"
5,7,"CC1CC1n1cc(C(=O)NCc2nnc(-c3ccccc3)s2)nn1 (single isomer, unassigned) [Example 132, Cis-1-(2-methylcyclopropyl)-N-((5-phenyl-1,3,4-thiadiazol-2-yl)methyl)-1H-1,2,3-triazole-4-carboxamide]"
6,92,"CC1CC1n1cc(C(=O)NCc2nnc(-c3ccccc3)s2)nn1 (single isomer, unassigned) [Example 133, Cis-1-(2-methylcyclopropyl)-N-((5-phenyl-1,3,4-thiadiazol-2-yl)methyl)-1H-1,2,3-triazole-4-carboxamide]"
7,25,"O=C(NCc1nnc(-c2ccccc2)s1)c1cn(CC(O)C(F)F)nn1 (single isomer, unassigned) [Example 138, 1-(3,3-difluoro-2-hydroxypropyl)-N-((5-phenyl-1,3,4-thiadiazol-2-yl)methyl)-1H-1,2,3-triazole-4-carboxamide]"
8,123,"O=C(NCc1nnc(-c2ccccc2)s1)c1cn(CC(O)C(F)F)nn1 (single isomer, unassigned) [Example 139, 1-(3,3-difluoro-2-hydroxypropyl)-N-((5-phenyl-1,3,4-thiadiazol-2-yl)methyl)-1H-1,2,3-triazole-4-carboxamide]"
9,5,"O=C(NCc1nnc(-c2ccccc2)s1)c1cn([C@@H]2C[C@H]2CO)nn1 (single isomer, unassigned) [Example 141, Trans-1-(2-(hydroxymethyl)cyclopropyl)-N-((5-phenyl-1,3,4-thiadiazol-2-yl)methyl)-1H-1,2,3-triazole-4-carboxamide]"
10,33,"O=C(NCc1nnc(-c2ccccc2)s1)c1cn([C@@H]2C[C@H]2CO)nn1 (single isomer, unassigned) [Example 142, Trans-1-(2-(hydroxymethyl)cyclopropyl)-N-((5-phenyl-1,3,4-thiadiazol-2-yl)methyl)-1H-1,2,3-triazole-4-carboxamide]"
11,179,"O=C(NCc1nnc(-c2ccccc2)s1)c1cn(C2C[C@@H]2C(F)F)nn1 (single isomer, unassigned) [Example 143, Trans-1-(-2-(difluoromethyl)cyclopropyl]-N-[(5-phenyl-1,3,4-thiadiazol-2-yl)methyl]-1H-1,2,3-triazole-4-carboxamide]"
12,383,"O=C(NCc1nnc(-c2ccccc2)s1)c1cn(C2C[C@@H]2C(F)F)nn1 (single isomer, unassigned) [Example 144, Trans-1-(-2-(difluoromethyl)cyclopropyl]-N-[(5-phenyl-1,3,4-thiadiazol-2-yl)methyl]-1H-1,2,3-triazole-4-carboxamide]"
13,5,"O=C(NCc1nnc(-c2ccccc2)s1)c1cn([C@@H]2C[C@@H]2C(F)F)nn1 (single isomer, unassigned) [Example 145, cis-1-(-2-(difluoromethyl)cyclopropyl]-N-[(5-phenyl-1,3,4-thiadiazol-2-yl)methyl]-1H-1,2,3-triazole-4-carboxamide]"
14,244,"O=C(NCc1nnc(-c2ccccc2)s1)c1cn([C@@H]2C[C@@H]2C(F)F)nn1 (single isomer, unassigned) [Example 146, cis-1-(-2-(difluoromethyl)cyclopropyl]-N-[(5-phenyl-1,3,4-thiadiazol-2-yl)methyl]-1H-1,2,3-triazole-4-carboxamide]"
15,587,"CC(NC(=O)c1cn(C2CC2)nn1)c1nnc(-c2ccccc2)s1 (single isomer, unassigned) [Example 244, 1-cyclopropyl-N-(1-(5-phenyl-1,3,4-thiadiazol-2-yl)ethyl)-1H-1,2,3-triazole-4-carboxamide]"
16,23,"CC(NC(=O)c1cn(C2CC2)nn1)c1nnc(-c2ccccc2)s1 (single isomer, unassigned) [Example 245, 1-cyclopropyl-N-(1-(5-phenyl-1,3,4-thiadiazol-2-yl)ethyl)-1H-1,2,3-triazole-4-carboxamide]"
17,84,"CC(NC(=O)c1cn(CC(F)F)nn1)c1nnc(-c2ccccc2)s1 (single isomer, unassigned) [Example 251, 1-(2,2-difluoroethyl)-N-(1-(5-phenyl-1,3,4-thiadiazol-2-yl)ethyl)-1H-1,2,3-triazole-4-carboxamide]"
18,15,"CC(NC(=O)c1cn(CC(F)F)nn1)c1nnc(-c2ccccc2)s1 (single isomer, unassigned) [Example 252, 1-(2,2-difluoroethyl)-N-(1-(5-phenyl-1,3,4-thiadiazol-2-yl)ethyl)-1H-1,2,3-triazole-4-carboxamide]"
19,492,"CC(NC(=O)c1cn(C)nn1)c1nnc(-c2ccccc2)s1 (single isomer, unassigned) [Example 258, 1-methyl-N-(1-(5-phenyl-1,3,4-thiadiazol-2-yl)ethyl)-1H-1,2,3-triazole-4-carboxamide]"
20,26,"CC(NC(=O)c1cn(C)nn1)c1nnc(-c2ccccc2)s1 (single isomer, unassigned) [Example 259, 1-methyl-N-(1-(5-phenyl-1,3,4-thiadiazol-2-yl)ethyl)-1H-1,2,3-triazole-4-carboxamide]"
21,85,"Cc1ccc(-n2cc(C(=O)NC(C)c3nnc(-c4ccccc4)s3)nn2)c(C)n1 (single isomer, unassigned) [Example 262, 1-(2,6-dimethylpyridin-3-yl)-N-(1-(5-phenyl-1,3,4-thiadiazol-2-yl)ethyl)-1H-1,2,3-triazole-4-carboxamide]"
22,33,"Cc1ccc(-n2cc(C(=O)NC(C)c3nnc(-c4ccccc4)s3)nn2)c(C)n1 (single isomer, unassigned) [Example 263, 1-(2,6-dimethylpyridin-3-yl)-N-(1-(5-phenyl-1,3,4-thiadiazol-2-yl)ethyl)-1H-1,2,3-triazole-4-carboxamide]"
23,25,"CC(C#N)n1cc(C(=O)NCc2cc(-c3ccncc3)on2)nn1 (single isomer, unassigned) [Example 275, 1-(1-cyanoethyl)-N-((5-(pyridin-4-yl)isoxazol-3-yl)methyl)-1H-1,2,3-triazole-4-carboxamide]"
24,113,"CC(C#N)n1cc(C(=O)NCc2cc(-c3ccncc3)on2)nn1 (single isomer, unassigned) [Example 276, 1-(1-cyanoethyl)-N-((5-(pyridin-4-yl)isoxazol-3-yl)methyl)-1H-1,2,3-triazole-4-carboxamide]"

# Reference: patent publication US20240336608A1, “IL4I1 INHIBITORS AND METHODS OF USE” (Merck Sharp & Dohme LLC, priority 2023, published 2024)
